The values below come from patent US10676462B2, “Quinoline derivative” (ONO PHARMACEUTICAL CO., LTD., priority 2013, dated 2020).

One experiment has as its target T1, Axl enzyme (Homo sapiens, UniProt P30530).
T1 construct: a solution containing 400 ng/mL Axl enzyme was prepared
T1 sequence (P30530 26-894): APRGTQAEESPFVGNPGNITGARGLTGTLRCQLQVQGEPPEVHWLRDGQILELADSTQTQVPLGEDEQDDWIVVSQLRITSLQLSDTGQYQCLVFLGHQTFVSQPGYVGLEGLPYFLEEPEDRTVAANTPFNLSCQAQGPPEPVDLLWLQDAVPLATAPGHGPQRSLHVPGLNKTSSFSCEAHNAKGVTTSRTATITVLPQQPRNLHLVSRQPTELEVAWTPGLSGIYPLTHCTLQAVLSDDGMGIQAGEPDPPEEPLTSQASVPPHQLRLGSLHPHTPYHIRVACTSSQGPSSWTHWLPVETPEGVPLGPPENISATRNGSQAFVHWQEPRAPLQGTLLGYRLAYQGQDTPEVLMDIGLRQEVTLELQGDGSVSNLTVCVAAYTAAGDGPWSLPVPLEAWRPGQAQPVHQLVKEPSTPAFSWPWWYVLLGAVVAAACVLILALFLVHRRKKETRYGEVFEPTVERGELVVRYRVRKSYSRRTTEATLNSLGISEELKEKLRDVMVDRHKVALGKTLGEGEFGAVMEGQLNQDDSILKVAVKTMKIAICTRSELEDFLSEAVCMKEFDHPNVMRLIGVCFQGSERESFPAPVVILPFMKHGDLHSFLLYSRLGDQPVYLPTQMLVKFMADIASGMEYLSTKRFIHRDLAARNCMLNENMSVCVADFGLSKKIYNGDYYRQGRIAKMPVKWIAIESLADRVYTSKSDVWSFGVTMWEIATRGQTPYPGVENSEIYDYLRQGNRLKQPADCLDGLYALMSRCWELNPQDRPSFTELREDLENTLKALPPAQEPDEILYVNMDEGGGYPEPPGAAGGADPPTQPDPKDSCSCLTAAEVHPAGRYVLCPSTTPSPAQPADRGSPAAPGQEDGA
The experiment in a line: Measurement of an Axl inhibitory activity (LanthaScreen TR-FRET, in vitro test). Format: biochemical. The procedure: Biological Example 1: Measurement of an Axl Inhibitory Activity (In Vitro Test)
An Axl enzyme inhibitory activity was measured by using LanthaScreen (registered trademark) system (Invitrogen) based on the attached instruction. The reagents used are shown below.
Reaction buffer solution: a solution containing 50 mmol/L HEPES (pH7.5), 0.01% Brij35, 10 mmol/L MgCl2 and 1 mmol/L EGTA was prepared by using purified water.
Test substance solution: a solution containing a test compound of 5-fold concentration with respect to the final concentration was prepared by 20-fold diluting a DMSO solution of test compound of each concentration with the reaction buffer solution.
Enzyme solution: a solution containing 400 ng/mL Axl enzyme was prepared by using the reaction buffer solution.
Substrate solution: a solution containing 45 μmmol/L ATP and 500 nmmol/L Fluorescein-Poly GT (Invitrogen) was prepared by using the reaction buffer solution.
Detection solution: a solution containing 20 mM EDTA and 4 nM PY20 (Invitrogen) was prepared by using Dilution B (Invitrogen).
A 10 mmol/L DMSO solution of the test compound was dispensed into a 96-well plate (Nunc), and, furthermore, a 3-fold dilution series was prepared using DMSO. In each well of the 96-well plate for measurement, 5 μL each of the reaction buffer solution containing DMSO was added to a Blank group and a medium group, and 5 μL of the test substance solution was added to the test substance group, respectively. Next, 10 μL/well of the reaction buffer solution was added to the Blank group, and 10 μL/well each of the enzyme solution was added to the medium group and the test compound group, followed by stirring at room temperature for 10 min. After the completion of stirring, 10 μL each of the substrate solution was added into each well, followed by stirring at room temperature with light shielded for one hour. After the completion of reaction, 25 μL each of the detection solution was added to each well, and stood still at room temperature with light shielded for 30 min. After standing sill, fluorescence intensity at 520 nm and 495 nm at the time of irradiation with exciting light of 340 nm was measured by using Analyst GT (Molecular Devices). The phosphorylation of the artificial substrate was quantified by Time-resolved Fluorescence Resonance Energy Transfer (TR-FRET). TR-FRET ratio was calculated by dividing 520 nm fluorescence signal by 495 nm fluorescence signal for each well, and the inhibition rate (%) in the test compound group was calculated based on the following mathematical formula. Inhibition rate (%)=[1−(TR-FRET ratio of test compound group−A)/(B−A)×100 [Math. 1] A: average value of TR-FRET ratios of Blank group B: average value of TR-FRET ratios of medium group
Values of 50% inhibition rate (IC50 values) of the test compound were calculated from the inhibition curve based on the inhibition rate of the test compounds in each concentration.
On the technique in general: In TR-FRET formats the signal depends on donor and acceptor labels being close together.

In another experiment the target is T2, Ba/F3 Axl (Homo sapiens, UniProt P30530).
T2 sequence (P30530 1-894): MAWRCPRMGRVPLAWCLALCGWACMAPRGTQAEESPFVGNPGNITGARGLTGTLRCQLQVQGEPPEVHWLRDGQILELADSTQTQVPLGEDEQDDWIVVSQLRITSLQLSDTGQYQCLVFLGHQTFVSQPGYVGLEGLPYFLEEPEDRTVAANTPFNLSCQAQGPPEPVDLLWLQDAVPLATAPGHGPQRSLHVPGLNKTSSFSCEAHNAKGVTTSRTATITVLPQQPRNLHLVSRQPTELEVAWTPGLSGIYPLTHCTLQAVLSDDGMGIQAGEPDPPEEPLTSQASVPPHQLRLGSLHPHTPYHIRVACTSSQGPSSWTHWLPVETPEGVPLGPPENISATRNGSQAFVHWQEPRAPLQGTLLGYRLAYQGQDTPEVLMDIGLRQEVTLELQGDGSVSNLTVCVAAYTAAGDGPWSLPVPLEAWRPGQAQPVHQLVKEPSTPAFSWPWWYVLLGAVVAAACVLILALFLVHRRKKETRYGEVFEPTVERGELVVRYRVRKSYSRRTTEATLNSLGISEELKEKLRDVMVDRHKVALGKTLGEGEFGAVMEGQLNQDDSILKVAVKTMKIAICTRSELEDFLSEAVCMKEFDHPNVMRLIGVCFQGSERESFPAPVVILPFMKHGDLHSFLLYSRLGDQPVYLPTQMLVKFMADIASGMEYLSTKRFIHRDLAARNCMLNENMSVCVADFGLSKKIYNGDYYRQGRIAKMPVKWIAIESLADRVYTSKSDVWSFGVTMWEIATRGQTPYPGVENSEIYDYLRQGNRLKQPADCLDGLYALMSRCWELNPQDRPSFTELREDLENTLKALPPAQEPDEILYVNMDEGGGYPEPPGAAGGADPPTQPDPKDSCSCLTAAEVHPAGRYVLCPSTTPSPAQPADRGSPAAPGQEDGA
The experiment in a line: Proliferation suppression rate using mouse pro-B cell line (Ba/F3 Axl) stably expressing Axl. Format: cell-based. The note with it: Ba/F3 Axl cells, 48 hours, CellTiter-Glo; read-out: IC50 value, proliferation suppression of Ba/F3 Axl. The procedure:
Biological Example 2: Measurement of Proliferation Suppression Rate by Using Mouse Pro-B Cell Line (Ba/F3 Axl) Stably Expressing Axl
A 0.1 mmol/L DMSO solution of the test compound was dispensed into a 96-well plate, and a 3-fold dilution series was prepared using DMSO. DMSO solutions of test compounds, having various concentrations, were further 500-fold diluted with a RPMI1640 medium (containing 10% HI-FBS, 1% penicillin) and a diluted solution of the test compound having […] with respect to the final concentration was prepared. In each well of the 96-well plate (BD Biosciences) for measurement, 50 μL of a RPMI medium was added to the Blank group, 50 μL of a RPMI medium containing 0.2% DMSO was added to the medium group, and 50 μL of the diluted solution of the test compound was added to the test compound group, respectively. Ba/F3 Axl was diluted with a medium to have a density of 2×10^5 cells/mL to prepare a cell suspension. In each well of the 96-well plate for measurement, 50 μL each of the RPMI medium was added to the Blank group, and 50 μL each of the cell suspension to the medium group and the test compound group, respectively, and the groups were stood still at 37° C. at 5% CO2 for 48 hours. After standing still, Relative Light Unit (RLU) was measured by using CELLTITER-GLO (registered trademark) LUMINESCENT CELL VIABILITY ASSAY (Promega). The measurement was carried out according to the attached instruction. To each well, 100 μL each of light-emitting solution was added. The plate was stirred at room temperature for 3 min and then stool still at room temperature with light shielded for 10 min, and RLU was measured by using Microplate Reader (SpectraMax M5e, Molecular Devices). The average values of RLU of the Blank group and the medium group were respectively calculated, and the proliferation suppression rate of the test compound group was calculated. Proliferation suppression rate (%)={1−(RLU of test compound group−A)/(B−A)}×100 [Math. 2] A: average value of RLU of Blank group B: average value of RLU of medium group
A value of 50% inhibition rate (IC50 value) of the test compound was calculated from the inhibition curve based on the inhibition rate in each concentration of the test compound.
Background: Cellular ATP, detected with luciferase, serves as a proxy for viable cell number.

A further experiment addresses KDR (Homo sapiens, UniProt P35968). The experiment in a line: Evaluation of kinase selectivity (in vitro test), KDR. Format: biochemical. Conditions: Axl selective inhibitory activity with respect to KDR, ratio of IC50 values. The procedure:
Biological Example 3: Evaluation of Kinase Selectivity (In Vitro Test)
Similar to Biological Example 1, values of 50% inhibition rate (IC50 value) with respect to various kinases (KDR, DDR1, FLT4, and ROS) of the test compound were measured. The Axl selective inhibitory activity of the test compound with respect to kinases, for example, KDR, was calculated based on the above-mentioned ratio of the IC50 values. As the test compound, for the compound of the present invention, the compounds of Examples 5, 5(1), 17(2), and 23(2) were used, and for the comparative compounds, the compound of Example 5 (Comparative compound C) and the compound of Example 92 (Comparative compound D) described in Patent Literature 5, having the following structure, were used.

Sequence of KDR (P35968 20-1356): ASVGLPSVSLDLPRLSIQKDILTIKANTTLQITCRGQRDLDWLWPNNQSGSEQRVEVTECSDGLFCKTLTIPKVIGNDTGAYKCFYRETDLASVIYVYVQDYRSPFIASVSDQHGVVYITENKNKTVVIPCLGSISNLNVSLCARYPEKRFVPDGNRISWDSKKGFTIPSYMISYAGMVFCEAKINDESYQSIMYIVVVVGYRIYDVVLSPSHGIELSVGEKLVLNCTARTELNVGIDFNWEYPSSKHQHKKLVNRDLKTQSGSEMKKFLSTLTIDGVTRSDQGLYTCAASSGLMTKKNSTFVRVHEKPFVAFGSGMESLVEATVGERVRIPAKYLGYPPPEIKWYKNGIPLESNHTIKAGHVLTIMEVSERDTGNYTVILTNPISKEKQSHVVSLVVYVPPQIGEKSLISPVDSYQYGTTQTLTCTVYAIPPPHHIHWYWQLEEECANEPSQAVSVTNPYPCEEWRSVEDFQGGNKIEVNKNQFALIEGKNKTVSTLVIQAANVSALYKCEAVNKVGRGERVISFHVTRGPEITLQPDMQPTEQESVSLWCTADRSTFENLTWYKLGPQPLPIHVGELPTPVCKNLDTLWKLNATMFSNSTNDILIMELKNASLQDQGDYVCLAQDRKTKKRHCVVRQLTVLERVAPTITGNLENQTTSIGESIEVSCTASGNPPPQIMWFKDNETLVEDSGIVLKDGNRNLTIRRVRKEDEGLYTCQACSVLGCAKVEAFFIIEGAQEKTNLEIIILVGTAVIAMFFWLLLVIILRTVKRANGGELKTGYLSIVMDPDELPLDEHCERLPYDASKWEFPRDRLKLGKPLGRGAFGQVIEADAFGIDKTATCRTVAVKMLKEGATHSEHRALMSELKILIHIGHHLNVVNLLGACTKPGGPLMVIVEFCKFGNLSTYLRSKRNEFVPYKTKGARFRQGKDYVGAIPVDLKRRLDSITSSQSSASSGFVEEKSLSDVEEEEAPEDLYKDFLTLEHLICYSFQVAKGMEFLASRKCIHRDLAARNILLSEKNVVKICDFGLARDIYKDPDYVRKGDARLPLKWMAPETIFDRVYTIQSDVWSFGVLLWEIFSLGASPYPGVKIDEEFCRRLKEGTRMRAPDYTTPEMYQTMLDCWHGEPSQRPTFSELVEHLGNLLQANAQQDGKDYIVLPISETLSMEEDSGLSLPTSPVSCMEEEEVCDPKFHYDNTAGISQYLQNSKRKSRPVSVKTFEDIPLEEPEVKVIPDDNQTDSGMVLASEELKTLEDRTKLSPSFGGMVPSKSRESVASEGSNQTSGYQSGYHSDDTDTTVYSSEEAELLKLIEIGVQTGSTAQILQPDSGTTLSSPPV

By IC50 is commonly meant the midpoint of a concentration-inhibition curve. Lower therefore signals greater potency in that assay. `COc1cc2nccc(Oc3ccc(NC(=O)c4nn(C)c5ccccc45)cc3F)c2cc1OC` [Comparative compound A, reference compound] came in with an IC50 against Axl enzyme of over 10000 nM. For the same molecule, the GI50 at Ba/F3 Axl amounted to 620 nM.

In the case of `COc1cc2nccc(Oc3ccc(NC(=O)c4cc5ccccc5[nH]c4=O)cc3)c2cc1OC` [Comparative compound B, reference compound], the IC50 at Axl enzyme is over 10000 nM. Also, the GI50 on Ba/F3 Axl was over 10000 nM.

`COc1cc2c(Oc3ccc(NC(=O)c4cccc5cccnc45)cc3F)ccnc2cc1OCCCN1CCOCC1` [Comparative compound C, reference compound]: at KDR, the “KDR [IC50]/Axl [IC50]” value was “about 0.2 times”.

Regarding `COc1cc2c(Oc3ccc(NC(=O)c4ccnn(-c5ccc(F)cc5)c4=O)cn3)ccnc2cc1OCCCN1CCOCC1` [Comparative compound D, reference compound], at KDR, the “KDR [IC50]/Axl [IC50]” value is “about 28 times”.

With `COc1cc2nccc(Oc3ccc(NC(=O)c4cc5c(n(CC(C)(C)C)c4=O)CCCC5=O)nc3)c2cc1OC` [Example 5(6), N-{5-[(6,7-dimethoxy-4-quinolinyl)oxy]-2-pyridinyl}-1-(2,2-dimethylpropyl)-2,5-dioxo-1,2,5,6,7,8-hexahydro-3-quinolinecarboxamide], it took 4.3 nM to reach half-maximal inhibition against Axl enzyme (IC50). For the same molecule, the GI50 at Ba/F3 Axl worked out at 7.8 nM.
